The source of these data is patent publication US10532986B2, “Cyclic compound acting as PDE4 inhibitor” (MEDSHINE DISCOVERY INC., priority 2016, dated 2020).

Broadly, the IC50 is the concentration that gives 50% inhibition.

The assay addresses T1, Recombinant human PDE4B (Homo sapiens, UniProt Q07343).
T1 construct: amino acid 305-end; GST (N); made in house; host or cells: Sf9 insect cells (baculovirus)
The experiment in a line: Inhibitory activity of the compounds against PDE 4B (fluorescence polarization, Transcreener AMP2/GMP2). To be noted: recombinant human PDE4B (aa 305-end, GST tag); 1 μM cAMP; 1 hour at room temperature. In kind it is biochemical. The method, then: Inhibitory activity of the compounds against PDE 4B
The assay is based on the fluorescence polarization measuring AMP/GMP production as a result of the enzyme activity by displacement of Tracer binding to the AMP/GMP antibody.
10 mM Tris-HCl (pH 7.5), 5 mM MgCl2, 0.01% Brij 35, 1 mM DTT and 1% DMSO.
Recombinant human PDE4B (Gene accession number: NM_002600; amino acid 305-end) was expressed by baculovirus in Sf9 insect cells using an N-terminal GST tag. MW=78 kDa.
Transcreener® AMP^2/GMP^2 antibody and AMP^2/GMP^2 AlexaFluor 633 tracer
i) Recombinant human PDE4B and the enzyme substrate (1 μM cAMP) were dissolved in the newly-prepared buffer solution, respectively.
ii) The PDE4B buffer solution defined as above was transferred into the reaction wells.
iii) The compound which was dissolved in 100% DMSO was added to the reaction wells of the PDE4B buffer solution by Acoustic technology (Echo550; nanoliter range) and incubated at room temperature for 10 minutes.
iv) The enzymatic buffer solution was then added to the reaction wells defined as above to initiate the reaction.
v) The reaction was incubated at room temperature for 1 hour.
vi) The reaction was terminated by adding detecting mixture (Transcreener® AMP^2/GMP^2 antibody and AMP^2/GMP^2 AlexaFluor 633 tracer) and incubated for 90 minutes with gentle mixing. The measurement range of fluorescence polarization is Ex/Em=620/688.
The fluorescence polarization signal was converted into nM based on the AMP/GMP standard curve and the percent enzyme activity relative to DMSO calculated by Excel. GraphPad Prism was used to plot the curves (Drawing Medicine Icon)

Structures are written as SMILES.

T1 sequence (Q07343 305-736 limits assumed): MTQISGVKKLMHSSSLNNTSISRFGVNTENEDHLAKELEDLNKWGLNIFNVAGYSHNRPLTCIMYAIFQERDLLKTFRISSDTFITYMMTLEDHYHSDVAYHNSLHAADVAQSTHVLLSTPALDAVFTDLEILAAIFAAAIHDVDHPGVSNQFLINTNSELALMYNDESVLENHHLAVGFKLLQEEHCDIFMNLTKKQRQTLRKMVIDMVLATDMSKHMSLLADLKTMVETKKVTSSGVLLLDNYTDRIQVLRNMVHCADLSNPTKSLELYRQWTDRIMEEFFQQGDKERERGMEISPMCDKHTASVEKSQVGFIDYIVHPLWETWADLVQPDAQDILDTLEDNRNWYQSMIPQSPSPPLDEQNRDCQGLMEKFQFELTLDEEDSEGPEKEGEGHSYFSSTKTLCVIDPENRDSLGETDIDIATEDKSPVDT

With `CCOc1cc([C@@H](CS(C)(=O)=O)n2c(=O)n(CC(F)(F)F)c3c(Cl)cccc32)ccc1OC` [WX062], the IC50 was 54.9 nM. Consider `CCOc1cc(C(CS(C)(=O)=O)n2c(=O)n(CCS(C)(=O)=O)c3cc(Br)ccc32)ccc1OC` (stereo not shown) [WX063], for which the IC50 is 20.8 nM. With `CCOc1cc([C@@H](CS(C)(=O)=O)n2c(=O)n(Cc3ccccc3F)c3cc(Br)ccc32)ccc1OC` [WX064], the IC50 is 0.91 nM. Then `CCOc1cc([C@@H](CS(C)(=O)=O)n2c(=O)n(Cc3cccc(F)c3)c3cc(Br)ccc32)ccc1OC` [WX065], with 1.43 nM; and `CCOc1cc([C@@H](CS(C)(=O)=O)n2c(=O)n(Cc3ccc(F)cc3)c3cc(Br)ccc32)ccc1OC` [WX066], with 1.54 nM; and `CCOc1cc([C@@H](CS(C)(=O)=O)n2c(=O)n(Cc3ccccc3F)c3ccccc32)ccc1OC` [WX067], with 10.1 nM. Take `CCOc1cc([C@@H](CS(C)(=O)=O)n2c(=O)n(C)c3cc(-c4ccccc4F)ccc32)ccc1OC` [WX068]: the IC50 worked out at 0.707 nM. Then `CCOc1cc([C@@H](CS(C)(=O)=O)n2c(=O)n(CC)c3cc(-c4ccccc4F)ccc32)ccc1OC` [WX069], with 0.477 nM. Under `CCOc1cc([C@@H](CS(C)(=O)=O)n2c(=O)n(C(C)C)c3cc(-c4ccccc4F)ccc32)ccc1OC` [WX070] stands 1.25 nM; under `CCOc1cc([C@@H](CS(C)(=O)=O)n2c(=O)n(CC#N)c3cc(-c4ccccc4F)ccc32)ccc1OC` [WX071], under 0.5 nM; under `CCOC(=O)c1ccc2c(c1)n(CC(F)F)c(=O)n2[C@H](CS(C)(=O)=O)c1ccc(OC)c(OCC)c1` [WX072], 14.8 nM. Then `CCOC(=O)c1ccc2c(c1)n(CC(F)(F)F)c(=O)n2[C@H](CS(C)(=O)=O)c1ccc(OC)c(OCC)c1` [WX073], with 31.8 nM. As to `CCOC(=O)c1ccc2c(c1)n(C)c(=O)n2[C@H](CS(C)(=O)=O)c1ccc(OC)c(OCC)c1` [WX074], the 50% inhibitory concentration (IC50) was 10.2 nM. Then `CCOc1cc(C(CS(C)(=O)=O)n2c(=O)[nH]c3cc(-c4ccccc4F)ccc32)ccc1OC(F)F` (stereo not shown) [WX075], with 0.68 nM. On to `COc1ccc(C(CS(C)(=O)=O)n2c(=O)[nH]c3cc(-c4ccccc4F)ccc32)cc1` (stereo not shown) [WX076], for which the half-inhibitory concentration (IC50) worked out at 21.8 nM. Then `CCOc1cc(C(CS(C)(=O)=O)n2c(=O)oc3cc(Br)ccc32)ccc1OC` (stereo not shown) [WX077], with 46.8 nM; and `CCOc1cc([C@@H](CS(C)(=O)=O)n2c(=O)[nH]c3c(-c4cnn(C)c4)cccc32)ccc1OC` [WX078], with 0.822 nM; and `CCOc1cc([C@@H](CS(C)(=O)=O)n2c(=O)[nH]c3c(C(C)C)cccc32)ccc1OC` [WX079], with 2.53 nM. Then `CCOc1cc([C@@H](CS(C)(=O)=O)n2c(=O)[nH]c3c(C4=CCOCC4)cccc32)ccc1OC` [WX080], with 1.03 nM; and `CCOc1cc([C@@H](CS(C)(=O)=O)n2c(=O)[nH]c3c(C4CCOCC4)cccc32)ccc1OC` [WX081], with 1.38 nM. `CCOc1cc([C@@H](CS(C)(=O)=O)n2c(=O)[nH]c3c(-c4ccccc4OC)cccc32)ccc1OC` [WX082]: the IC50 was under 0.5 nM.

Turning to `CCOc1cc([C@@H](CS(C)(=O)=O)n2c(=O)[nH]c3c(-c4ccccc4C)cccc32)ccc1OC` [WX083], the half-maximal inhibitory concentration (IC50) is under 0.5 nM. Under `CCOc1cc([C@@H](CS(C)(=O)=O)n2c(=O)[nH]c3c(-n4cccn4)cccc32)ccc1OC` [WX084] stands 18.1 nM; under `CCOc1cc([C@@H](CS(C)(=O)=O)n2c(=O)[nH]c3c(C(=O)N4CCCC4)cccc32)ccc1OC` [WX085], 5.64 nM; under `CCOc1cc([C@@H](CS(C)(=O)=O)n2c(=O)[nH]c3c(C(C)=O)cccc32)ccc1OC` [WX086], 36.2 nM. Under `CCOc1cc([C@@H](CS(C)(=O)=O)n2c(=O)[nH]c3c(-c4ccccc4F)cccc32)ccc1OC` [WX087] stands 1.29 nM. Under `CCOc1cc([C@@H](CS(C)(=O)=O)n2c(=O)[nH]c3c(-c4cccc(F)c4)cccc32)ccc1OC` [WX088] stands 2.4 nM; under `CCOc1cc([C@@H](CS(C)(=O)=O)n2c(=O)[nH]c3c(-c4ccc(F)cc4)cccc32)ccc1OC` [WX089], 2.52 nM; under `CCOc1cc([C@@H](CS(C)(=O)=O)n2c(=O)[nH]c3c(-c4ccccc4)cccc32)ccc1OC` [WX090], 0.341 nM. Consider `CCOc1cc([C@@H](CS(C)(=O)=O)n2c(=O)[nH]c3c(C4CC4)cccc32)ccc1OC` [WX091], for which the half-maximal inhibitory concentration (IC50) is 3.98 nM. Then `C=C(C)c1cccc2c1[nH]c(=O)n2[C@H](CS(C)(=O)=O)c1ccc(OC)c(OCC)c1` [WX092], with 2.15 nM; and `CCOc1cc([C@@H](CS(C)(=O)=O)n2c(=O)[nH]c3c(-c4cccs4)cccc32)ccc1OC` [WX093], with 1.25 nM; and `CCOc1cc([C@@H](CS(C)(=O)=O)n2c(=O)[nH]c3c(Cc4ccccc4F)cccc32)ccc1OC` [WX094], with under 0.5 nM. On to `CCOc1cc([C@@H](CS(C)(=O)=O)n2c(=O)[nH]c3c(-c4nccs4)cccc32)ccc1OC` [WX095], for which the IC50 is 6.58 nM. As to `CCOc1cc([C@@H](CS(C)(=O)=O)n2c(=O)[nH]c3c(-c4ncc(F)cn4)cccc32)ccc1OC` [WX096], the IC50 is 7.3 nM. Under `CCOc1cc([C@@H](CS(C)(=O)=O)n2c(=O)[nH]c3c(-c4ncccc4F)cccc32)ccc1OC` [WX097] stands 5.04 nM.

`CCOC(=O)c1cccc2c1[nH]c(=O)n2[C@H](CS(C)(=O)=O)c1ccc(OC)c(OCC)c1` [WX098]: the IC50 stood at 18.1 nM.
